The values below come from US8623912B2, “Fostriecin derivatives and the pharmaceutical uses thereof” (priority 2008, dated 2014).

One series relates to HL60 (human leukemia). The experiment in a line: Celltiter 96 cell proliferation assay (modified MTT method), HL60. The note with it: read-out: IC50 HL60 (human leukemia). Format: cell-based. Here is the method: (§1) The anti-tumor activities of the compounds of thiophosphorylated FST (A) and methyl phosphorylated FST (B) of the present invention to various tumor cell lines of HL-60, CCRD-CEM and NCI-H460 were determined by Celltiter 96 cell proliferation assay kit (modified MTT method) manufactured by Promega company. Onto a 96-well plate, total volume 50 ul/well was added with about 5-7.5×10^3 cells/well, and cultured for 24 hours, followed by addition of 50 ul of the compounds (0.001 nM˜1000 nM) to each well, and cultured for 72 hours. Subsequently, 15 ul of MTT staining solution was added to the well, temperature was kept for 4 hours, the thus formed precipitate was then dissolved with 100 ul lysis buffe/stop solution. After 1 hour, the content in the well was mixed homogeneously with a shaker, and the abosorption value (OD 570 nm) of each well was measured by enzyme-labeled instrument (Molecular Devices). The data was analyzed with Kaleida Graph Program, and the IC50 value (the concentration of the compound at which the growth of 50% of the cell is inhibited) was calculated.
(Tetrazolium dyes change colour on reduction, which living cells bring about.)

Series [1] concerns CCRF-CEM (human leukemia). Description: Celltiter 96 cell proliferation assay (modified MTT method), CCRF-CEM. Format: cell-based. The note with it: read-out: IC50 CCRF-CEM (human leukemia). Here is the method:
as §1

The test system of series [2] is NCI-H460 (human Lung Cancer). Description: Celltiter 96 cell proliferation assay (modified MTT method), NCI-H460. Format: cell-based. The following applies: read-out: IC50 NCI-H460 (human Lung Cancer). Here is the method: as §1
The subject of a further series is alkaline phosphatase. Format: in vitro ADME. The note with it: FIG. 2; for stability under the action of alkaline phosphatase: 75 mM Tris Buffer pH 8.3, 5 mM MgCl2, 37° C., 2-5 hours; for formation of dephosphorylated FST under alkaline phosphatase: conditions of Example 1. Here is the method: Reaction condidtions: FST was dissolved in a solution of 75 mM Tris Buffer (pH 8.3) and 5 mM MgCl2 to obtain a 20 mM FST solution, to each milligram of Fostriecin was added 1 to 1.5 units of alkaline phosphatase, enzymolysis was performed at 37° C. for 2-5 hours.
Thiophosphorylated FST(A) and methyl phosphorylated FST(B) were subjected to hydrolysis of alkaline phosphatase under the reaction condidtions as described in Example 1.

The target of another series is protein phophatase PP2A (Homo sapiens, UniProt P67775). The following applies: cited from earlier work.
protein phophatase PP2A, sequence (P67775 whole entry): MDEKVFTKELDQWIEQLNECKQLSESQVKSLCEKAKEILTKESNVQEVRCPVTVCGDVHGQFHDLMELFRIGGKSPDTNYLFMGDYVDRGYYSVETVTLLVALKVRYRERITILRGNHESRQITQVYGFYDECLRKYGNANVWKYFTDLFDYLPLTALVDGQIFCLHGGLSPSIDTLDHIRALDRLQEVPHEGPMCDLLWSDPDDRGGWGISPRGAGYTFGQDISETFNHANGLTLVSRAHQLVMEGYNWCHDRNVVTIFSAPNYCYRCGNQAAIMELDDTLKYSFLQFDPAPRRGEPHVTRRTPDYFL
A further series deals with T1, PP4 (Homo sapiens, UniProt P60510).
T1 sequence (P60510 1-307): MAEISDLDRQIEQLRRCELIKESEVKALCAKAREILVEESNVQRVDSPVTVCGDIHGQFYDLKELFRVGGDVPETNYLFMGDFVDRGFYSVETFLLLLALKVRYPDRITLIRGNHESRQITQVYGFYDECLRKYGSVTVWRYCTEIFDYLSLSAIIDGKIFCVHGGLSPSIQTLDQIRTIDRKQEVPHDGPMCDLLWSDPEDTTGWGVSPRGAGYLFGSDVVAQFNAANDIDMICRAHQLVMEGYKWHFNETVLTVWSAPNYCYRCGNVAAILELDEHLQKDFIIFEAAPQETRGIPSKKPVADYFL
The following applies: cited from earlier work.

[3] abbreviates: HL-60, 72 hours culture with compound, MTT, OD 570 nm.
[4] abbreviates: 72 hours culture with compound, MTT, OD 570 nm.
[5] abbreviates: NCI-H460, 72 hours culture with compound, MTT, OD 570 nm.

Structures are written as SMILES. Where two headings read alike, the source gives them in different places.

In the case of `C[C@@](O)(/C=C/[C@H]1CC=CC(=O)O1)C(C[C@@H](O)\C=C/C=C\C=C\CO)OCP(=O)(O)O` (stereo partly drawn) [B], the IC50 in the series on HL60 (human leukemia) (setting [3]) is 12.5 µM; in series [1] (setting [4]) it was 14 µM; in series [2] (setting [5]), 16.3 µM. Besides, in the series on alkaline phosphatase, the “stability under the action of alkaline phosphatase” value is listed as “relatively stable”. In addition, in the series on alkaline phosphatase, the “formation of dephosphorylated FST under alkaline phosphatase” value was “no dephosphorylated FST was formed”.

Turning to `CC(O)(C=CC1CC=CC(=O)O1)C(CC(O)C=CC=CC=CCO)OP(=O)(O)O` (stereo not drawn) [FST, Fostriecin], the IC50 with HL60 (human leukemia) (setting [3]) was 12 µM; in series [1] (setting [4]) it was 10 µM; in series [2] (setting [5]), 14.5 µM; at protein phophatase PP2A it was 0.0015 µM; on PP4, 0.003 µM.

On to `C[C@@](O)(/C=C/C1CC=CC(=O)O1)C(C[C@@H](O)\C=C/C=C\C=C\CO)OP(O)(O)=S` (stereo partly drawn) [A], for which the IC50 in the series with HL60 (human leukemia) (HL-60, 72 h) was found to be 10.5 µM; in series [1] (72 h), 9.6 µM; in series [2] (NCI-H460, 72 h), 13.2 µM. For the same compound, the “stability under the action of alkaline phosphatase” value in the series with alkaline phosphatase is reported as “relatively stable”. Besides, in the series on alkaline phosphatase, the “formation of dephosphorylated FST under alkaline phosphatase” value is reported as “no dephosphorylated FST was formed”.

For orientation: IC50 means the concentration at which inhibition is half-maximal.
